Data from patent US9993492B2, “Lysophospholipids and lysophospholipid analogues against honeybee brood diseases” (University of Graz, priority 2013, dated 2018).
Where two headings read alike, the source gives them in different places.

Experiments:
[1] = system: spores of Paenibacillus larvae; experiment: Spore assay in BHI liquid medium with plating for CFU; format: cell-based; conditions: lowest investigated dose (5 ppm); 114.6±28.4 spores per vial; 4 and 6 days
Method: A stock solution containing spores at a known concentration is used to inoculate c. 100 spores/mL medium. This assay is carried out in 20 mL cultivation tubes containing 1.0 mL of BHI (brain heart infusion) liquid medium. To this medium containing c. […] spores, test compounds are added at different concentrations (e.g., 2, 5 and 10 ppm), together with positive control (penicillin G at 5 ppm) and blank control.
To verify inoculation with c. 100 spores/mL, tubes containing BHI+spores are plated out immediately on agar plates to assess the number of colony forming units (CFU) after 6 days of incubation at 34.5° C.
For the control of viability of the spores, the turbidity (due to germination of spores and formation of vegetative forms) of tubes containing BHI+spores is evaluated on day 4.
For the test probes, bacterial growth is evaluated on day 4 and 6. For those tubes which are negative for bacterial growth, the whole medium (c. 1 mL) is plated onto agar plates and evaluated for CFUs after 2 and 6 days of incubation. CFUs visible after two days result from vegetative forms, while CFUs appearing after […] stem from spores.
The results of these tests allow identifying whether the tested compounds have an effect on spore germination in liquid medium and the viability of the spores as assessed by their germination on agar plates. […]

honeybee larvae [2] = format: in vivo; conditions: LPC 10 μg/larva added on day 1, Nlarvae 192
Method: (§1) First instar larvae were transferred into plastic queen cups and fed the following diets: On the first day 10 μL of diet containing 6% glucose, 6% fructose, 1% yeast extract and 50% royal jelly were fed. Test substances (1-O-oleoyl-sn-glycero-3-phosphocholine (oleoyl-LPC), stearic acid, lysophosphatidylinositol and linoleic acid) were added to the first diet in amounts of 0.5 to 10 μg/larvae. For infection with spores of Paenibacillus larvae, larvae were grafted into 5 μL of diet containing test substances and subsequently 5 μL of diet with about 50 added Pl spores were given. Larvae were not fed on the second day to assure the consumption of the given diet. On the third day 20 μL of diet containing 7.5% glucose, 7.5% fructose, 1.5% yeast extract and 50% royal jelly were fed. Amounts of 30, 40 and 60 μL of diet composed of 9% glucose, 9% fructose, 2% yeast extract and 50% royal jelly were fed on the 4th, 5th and 6th day (method modified after Aupinel et al. [Aupinel et al. 2005. Bull Insectol 58:107-111]. Larvae were incubated at 34.5° C. and 95% relative humidity which was reduced to 80% on day 7. The mortality was checked daily for the first 7 days and when individuals emerged from queen cups at day 18 after the transfer into cups. To reduce the time for sporulation of Pl in the lab for security reasons, infection tests with Pl spores were stopped at day 7 with some experiments extend to day 12.
Larvae were fed according to a slightly modified rearing method of Aupinel et al., (2005). Larvae were fed for 6 days with different amounts of diets which always contained 50% of an aqueous solution (A, B, C) and 50% royal jelly (w/w). The solutions consisted of yeast extract (A=2%, B=3%, C=4%), glucose and fructose (A=12%, B=15%, C=18% each). 50 g portions of royal jelly (purchased from the Styrian school of beekeepers) were freeze stored at −20° C. Once a day all components of the needed diet were mixed freshly, warmed and fed to the larvae with a micro-pipette. On day 1 and 2 each larva was fed with 10 μL of diet A, on day three with 20 μL of diet B, on day four (30 μL), five (40 μL) and six (50 μL) with diet C. This way, each larva was supported with a total amount of 160 μL of food. The test compounds (see Table 4) were added each at the respective concentration on day 1, i.e. stearic acid (10 μg/larva), lysophosphatidylinositol (5 μg/larva), linoleic acid (12 μg/larva) and oleyol-LPC (10 μg/larva). Each larva was checked for its state of health under the binocular before feeding. A larva was defined healthy when movements of spiracles could be observed and it was shiny and plump. Cups with dead larvae were removed from the plate to prevent infections. To avoid microbial contamination, feeding took place under a laminar flow. Larvae were incubated at 34.5° C. and 90% RH. The mortality rates of the larvae are given below in table 4.1.

honeybee larvae [3] = experiment: LPC tolerance in non-infected artificially reared larvae, mortality until day 12; format: in vivo, Apis mellifera; conditions: LPC 10 μg/larva on day 1, 2 and 3, no spores, replicates separated by /, Nlarvae 70/48/47/48/40
Pl-infected larvae = experiment: In vivo effect of LPC on Pl-infected larvae; design: species or system Apis mellifera; conditions: LPC 10 μg/larva on day 1, 2 and 3 + 50 spores/larva (ERIC II, strain 233/00) on day 1, replicates separated by /, Nlarvae 71/48/48
Method: as §1
In vivo effect of LPC on Pl-infected larvae: Artificial larval rearing was performed as described above. Larvae were individually infected with a dose of c. 50 spores/larva (ERIC II, strain 233/00) given on the first day. LPC was administered on day 1, 2 and 3 in a dose of 10 μg/d. Mortality was checked daily until d 12.

CCCCCCCC/C=C\CCCCCCCC(=O)OC[C@@H](O)COP(=O)([O-])OCC[N+](C)(C)C [1-O-oleoyl-sn-glycero-3-phosphocholine]
killing of vegetative forms upon germination of spores [1]: all vegetative forms are killed | Ndead larvae day 1 (honeybee larvae [2]): 0 | Ndead larvae day 2 (honeybee larvae [2]): 7 | Ndead larvae day 3 (honeybee larvae [2]): 1 | Ndead larvae day 4 (honeybee larvae [2]): 1 | Ndead larvae day 5 (honeybee larvae [2]): 0 | Ndead larvae day 6 (honeybee larvae [2]): 0 | Ndead larvae day 7 (honeybee larvae [2]): 4 | Ndead larvae total (honeybee larvae [2]; days 1-7): 13 | Ndead larvae total (honeybee larvae [3]; days 1-12): 9/6/5/3/3 | Ndead larvae day 1 (honeybee larvae [3]): 0/0/0/0/0 | Ndead larvae day 2 (honeybee larvae [3]): 0/2/0/0/0 | Ndead larvae day 3 (honeybee larvae [3]): 0/0/3/0/0 | Ndead larvae day 4 (honeybee larvae [3]): 1/0/1/0/1 | Ndead larvae day 5 (honeybee larvae [3]): 0/0/0/0/0 | Ndead larvae day 6 (honeybee larvae [3]): 1/1/0/0/1 | Ndead larvae day 7 (honeybee larvae [3]): 0/0/1/0/0 | Ndead larvae day 8 (honeybee larvae [3]): 2/0/0/0/0 | Ndead larvae day 9 (honeybee larvae [3]): 1/2/0/3/0 | Ndead larvae day 10 (honeybee larvae [3]): 2/0/0/0/0 | Ndead larvae day 11 (honeybee larvae [3]): 0/1/0/0/1 | Ndead larvae day 12 (honeybee larvae [3]): 2/0/0/0/0 | Ndead larvae total (Pl-infected larvae; days 1-12): 26/12/14 | Ndead larvae day 1 (Pl-infected larvae): 0/0/0 | Ndead larvae day 2 (Pl-infected larvae): 1/0/0 | Ndead larvae day 3 (Pl-infected larvae): 3/2/4 | Ndead larvae day 4 (Pl-infected larvae): 11/5/8 | Ndead larvae day 5 (Pl-infected larvae): 7/2/0 | Ndead larvae day 6 (Pl-infected larvae): 1/1/1 | Ndead larvae day 7 (Pl-infected larvae): 1/1/0 | Ndead larvae day 8 (Pl-infected larvae): 0/0/1 | Ndead larvae day 9 (Pl-infected larvae): 0/0/0 | Ndead larvae day 10 (Pl-infected larvae): 2/0/0 | Ndead larvae day 11 (Pl-infected larvae): 0/1/0 | Ndead larvae day 12 (Pl-infected larvae): 0/0/0
